Laboratory results reported in US20200022998A1, “MEDICAL USE OF NOTCH4 OR INHIBITORS THEREOF” (BEIJING INSTITUTE OF GENOMICS, CHINESE ACADEMY OF SCIENCES, priority 2016, published 2020).

Columns and labels:
normal iPSC BC1 = assay: in vitro megakaryocyte lineage differentiation of iPSC BC1 (spin-EB), flow cytometry at Day 14; format: cell-based, human
Procedure: BC1 cell line was cultured in E8 medium, under the culture condition of 37° C., 5% CO2, and was passaged at (1:5)-(1:10) every 3-4 days depending on the concentration of cells. The cells were incubated in 0.5 mM EDTA, at room temperature for 2 min, and then were re-suspended and split up and down with E8 medium, and transferred to a culture dish that had been coated with Vitronectin one hour before.
During differentiation, spin-embryoid body (spin-EB) method was used (Ng E S, Davis R, Stanley E G, Elefanty A G, A protocol describing the use of a recombinant protein-based, animal product-free medium (APEL) for human embryonic stem cell differentiation as spin embryoid bodies, Nat Protoc. 2008; 3(5): 768-76.). At Day 0 (D0) after differentiation, iPSCs reached a confluence of above 85% (confluence refers to the percentage of the surface of a culture dish that is covered by adherent cells). After digestion with Accutase at 37° C. for 3 min, the cells were neutralized and split in SFM medium (50% IMDM, 50% Ham's F12, and the added reagents and factors including: human albumin, monothioglycerol, Glutamax, Chemically Defined Lipid Concentrate, L-Ascorbic acid 2-phosphate sesquimagnesium salt hydrate, ITS-X), counted, and centrifuged. After the cells were re-suspended in SFM, cytokines, i.e. 10 μM ROCK inhibitor (Rho-associated protein kinase inhibitor), 10 ng/ml bFGF, and 10 ng/ml BMP4, were added. Cells were seeded to a round-bottom 96-well plate, at 3000 or 5000 cells/50 μl for each well (3000 or 5000 cells were seeded to each well, in a volume of 50 μl for each well). At Day 2, 50 μl SFM medium+10 ng/ml bFGF+10 ng/ml BMP4+100 ng/ml SCF+20 ng/ml VEGF was added to each well. At Day 5, Day 8, and Day 11, 50 μl SFM medium+10 ng/ml bFGF+10 ng/ml BMP4+50 ng/ml SCF+10 ng/ml VEGF was added to each well, wherein 100 μl old medium was pipetted off at Day 8, and 10 ng/ml thrombopoietin (TPO) was added to each well at Day 11.
At Day 14 (D14), single cells (suspending cells) surrounding embryoid bodies (EBs) were collected. The cells were used in the following flow cytometry.
The cell surface markers (CD34, CD45, CD41, CD42) of the collected cells were detected by flow cytometer. The assay was as followed.
The detection was carried out in four tubes: the first tube was a negative tube that was not labeled with any flow antibody; the second tube was labelled with two antibodies CD34-APC and CD45-PE; the third tube was labeled with CD34-APC and CD41-PE; and the fourth tube was labeled with CD41-PE and CD42-APC, wherein CD34^+CD45^+represented the population of hematopoietic stem/progenitor cells (HSPCs), CD34^+CD41^+ represented the population of megakaryocyte progenitor cells (MKPs), and CD41^+CD42^+ represented the population of mature megakaryocytes (MKs).
(1) The BC1 cell line used was the same as the one used in Example 1, and was divided into three groups, wherein two 96-well plates were used for each group, and the cells were seeded at 5000 cells/50 μl to each well. In vitro differentiation was carried out by reference to the steps in Example 1, wherein the step of adding a drug was carried out in accordance with the following steps in I-III groups:
I. At Day 0 after differentiation, 10 μM RO4929097 was added, and DMSO was added to the control well.
III. At Day 2 after differentiation, 10 μM RO4929097, 10 μM L-685458, and 10 μM DAPT were added, respectively; in addition, at Day 5 after differentiation, 10 μM RO4929097, 10 μM L-685458, and 10 μM DAPT were added, respectively.
(2) The cells were collected for flow cytometry analysis, and as to the steps, please refer to the Example 1 above. […]
I. At Day 0 after differentiation, 10 μM RO4929097, and 10 μM DAPT were added, respectively.
II. At Day 2 after differentiation, 10 μM RO4929097, and 10 μM DAPT were added, respectively.
III. At Day 5 after differentiation, 10 μM RO4929097, and 10 μM DAPT were added, respectively.
IV. […]

[1] = system: umbilical cord blood-derived CD34+ cells; assay: in vitro megakaryocyte lineage differentiation of umbilical cord blood-derived CD34+ cells, flow cytometry; format: cell-based, human; details: 10 μM; cells collected at D14; FIG. 14
Procedure: (1) CD34^+ cells in umbilical cord blood were obtained by Ficoll-Paque PLUS density gradient centrifugation and magnetic bead sorting using CD34 MicroBead Kit. As to the particular steps, please refer to (GE Healthcare Life Sciences, http://www.gelifesciences.com), (Miltenyi Biotec, http://www.miltenyibiotec.com.cn).
(2) Differentiation of umbilical cord blood-derived CD34^+ cells into megakaryocytes: umbilical cord blood-derived CD34^+ cells were counted, and seeded at 1*10^6 cells to 4 ml StemSpan™ SFEM 11+50 ng/ml SCF+50 ng/ml TPO+50 ng/ml IL-6+20 ng/ml IL-3 in a 12-well plate, with 1 ml medium for each well, and four wells in total, to which 10 μM R04929097, 10 μM L-685458, 10 μM DAPT, and the same volume of DMSO as control were added, respectively, and the time was recorded as Day 0. The liquid was changed every 3 days, and the culture condition was 37° C., 5% CO2. After incubation for 6 days, the cell density was high, and the cells in each well were divided into two wells of a 12-well plate, with 2 ml medium for each well. The inhibitors were added at the same concnetrations as described above. The cells were collected at D14, counted, and detected for cell surface markers (CD41, CD42, CD61) by flow cytometer.
As to the collection of umbilical cord blood-derived CD34^+ cells, in vitro megakaryocytic differentiation and detection, please refer to Example 4-1.

Question: Which “increase of proportion of mature megakaryocytes produced vs DMSO control” value (normal iPSC BC1; 5 μM added at Day 2, FIG. 6) does the source give for CC(C)C[C@H](NC(=O)[C@H](Cc1ccccc1)C[C@@H](O)[C@H](Cc1ccccc1)NC(=O)OC(C)(C)C)C(=O)N[C@@H](Cc1ccccc1)C(N)=O [L-685458] here?
Answer: The value was 21%.

Question: And the “decrease of proportion of HSPCs (CD34+CD45+) vs DMSO control” value (normal iPSC BC1; 10 μM added at Day 2, FIG. 7A)?
Answer: Its value is 27%.

Question: What about the “proportion of MKPs (CD34+CD41+) produced, increased fold vs DMSO control (set as 1)” value (normal iPSC BC1; 10 μM added at Day 2, FIG. 7A) of the same compound?
Answer: Its value is “about 1.5 folds”.

Question: And the “proportion of mature megakaryocytes MKs (CD41+CD42+) produced, increased fold vs DMSO control (set as 1)” value (normal iPSC BC1; 10 μM added at Day 2, FIG. 7A)?
Answer: The value was “about 2.3 folds”.

Question: And the “proportion of HSPCs produced, increased fold vs DMSO control (set as 1)” value (normal iPSC BC1; 10 μM added at Day 5, FIG. 7B)?
Answer: Its value is “about 1.5 folds”.

Question: What about the “proportion of MKPs produced, increased fold vs DMSO control (set as 1)” value (normal iPSC BC1; 10 μM added at Day 5, FIG. 7B) of the same compound?
Answer: The value was “about 1.2 folds”.

Question: And the “proportion of mature megakaryocytes MKs produced, increased fold vs DMSO control (set as 1)” value (normal iPSC BC1; 10 μM added at Day 5, FIG. 7B)?
Answer: The value was “about 3.8 folds”.

Question: And the “total number of hematopoietic cells, increase vs control group” value (normal iPSC BC1; 10 μM added at Day 5, FIG. 7B)?
Answer: Its value is 2.3 folds.

Question: And the “production of megakaryocyte progenitor cells and/or mature megakaryocytes in vitro” value (normal iPSC BC1; screen in the in vitro differentiation system of stem cells)?
Answer: Its value is “significantly promote”.

Question: What about the “proportion of mature megakaryocyte (CD61+), increase vs control group” value [1] of the same compound?
Answer: Its value is 2.4 folds.

Question: And the “proportion of mature megakaryocytes MK (CD41+CD42+) produced, increase vs control group” value [1]?
Answer: The value was 2.3 folds.
